According to US7102000B2, “Heterocyclic amide derivatives for the treatment of diabetes and other diseases” (Incyte San Diego Inc., priority 2002, dated 2006):
Counter-ions that a name gives are not always drawn.

Assays:
KKA^y mice = assay: Oral treatment of type 2 diabetes in KKA^y mice (serum glucose, triglyceride, cholesterol); format: in vivo, mouse
Description: The procedure for this in-vivo assay for anti-diabetes activity was described in detail by Iwatsuka, et al. (1970 General Survey of Diabetic Features of Yellow KK Mice. Endocrinol. Japon. 17: 23–35, incorporated herein in its entirety by reference).
Experimental Procedures: Six to eight week-old male KKA^y mice (obtained from Jackson Labs of Bar Harbord, Me.) were housed in a fixed 12–12-hr artificial light-dark cycle, and maintained on a standard rodent diet provided ad libitum. Animals were allowed two days to acclimate in this experimental environment prior to the initiation of the study.
Prior to initiation of treatment with the compounds of the invention, the animals were bled from the tail vein (100–200 μL of whole blood) and serum levels of glucose and triglycerides were measured in duplicate (Trinder kits; Sigma, St. Louis, Mo.). Based on these initial measures, animals were sorted into groups with approximately the same average serum glucose levels. Once sorted, the animals were housed one per cage and provided rodent diet ad libitum. Unless otherwise indicated, compounds were suspended in sesame oil, and administered by oral gavage once daily to animals in a volume of 3 ml/kg/dose.
Treatment Group A (n=5/group): (See Results in FIG. 2a) • 1) KKA^y vehicle control (sesame oil) • 2) Compound 1 (3 mg/kg) • 3) Compound 1 (10 mg/kg) • 4) Compound 2 (3 mg/kg) • 5) Compound 2 (10 mg/kg)
Treatment Group B (n=6/group): (See Results in FIG. 2b) • 1) KKA^y vehicle control (sesame oil) • 2) Compound 11 (15 mg/kg)
Treatment Group C (n=6/group): (See Results in FIG. 2c) • 1) KKA^y vehicle control (sesame oil) • 2) Compound 13 (15 mg/kg)
Treatment Group D (n=6/group): (See Results in FIG. 2d) • 1) KKA^y vehicle control (CMC) • 2) Compound 25 (3 mg/kg, CMC) Compound 25 was suspended in a solution of carboxymethyl cellulose (CMC; 1% carboxy methyl cellulose in H2O, with 10% polyethelene glycol 400), and administered to animals in a volume of 5 ml/kg/dose.
Treatment Group E (n=5/group): (See Results in FIG. 2e) • 1) KKA^y vehicle control (10% HPβCD) • 2) Compound 25 (1 mg/kg) • 3) Compound 25 (3 mg/kg) • 4) Compound 25 (10 mg/kg) Compound 25 was dissolved in a 10% hydroxy propyl beta cyclodextrin solution, and administered to animals in a volume of 10 ml/kg/dose.
Serum glucose, triglyceride and/or cholesterol levels were measured in duplicate. The blood is kept at room temperature to allow coagulation, after which the serum is separated and assayed for glucose, triglyceride and/or cholesterol levels. As shown in FIGS. 2a–2d all of the compounds tested reduced serum glucose and triglyceride levels, some with doses as low as 3 mg/kg when administered once a day.

[1] = system: diet-induced hypercholesterolemic Sprague Dawley rats; assay: Diet-induced hypercholesterolemia in wild type Sprague Dawley rats (total, HDL, LDL cholesterol); format: in vivo, rat; conditions: Sprague Dawley rats on atherogenic diet, oral once daily, day 5, FIGS. 5a–c
Description: Experimental Procedure: Six week-old male Sprague Dawley rats (obtained from Harlan of San Diego, Calif.) were housed in a fixed 12—12-hr artificial light-dark cycle, and maintained on a high cholesterol atherogenic diet (Paigen's Diet, obtained from Research Diet Inc. of New Brounswick, N.J.) was provided ad libitum. Animals were allowed six days to acclimate in this experimental environment prior to the initiation of the study.
Prior to initiation of treatment, the animals were bled from the tail vein (100–200 μL of whole blood) and serum levels of cholesterol were measured in duplicate (Cholesterol Infinity kits; Sigma, St. Louis, Mo.). Based on these initial measures, animals were sorted into groups with approximately the same average total cholesterol levels. Once sorted, the animals were housed three per cage and maintained on Paigen's diet ad libitum. All compounds to be tested were suspended in sesame oil and administered in a final volume of 3 ml/kg. Drug is administered by oral gavage once daily at the beginning of the artificial light cycle. To obtain a base line for lipid measurement, a control group maintained on standart rodent diet is included (lean control).
Treatment Group A (n=6/group): (See Results in FIG. 5a) • 1) Lean control (Sesame Oil) • 2) Control • 3) Compound 2 (0.3 mg/kg) • 4) Compound 2 (1 mg/kg) • 5) Compound 2 (3 mg/kg)
Treatment Group B (n=6/group): (See Results in FIG. 5b) • 1) Lean control (Sesame Oil) • 2) Control • 3) Compound 6 (3 mg/kg)
Treatment Group C (n=6/group): (See Results in FIG. 5c) • 1) Lean control (10% HPβCD) • 2) Control • 3) Compound 25 (1 mg/kg) • 4) Compound 25 (3 mg/kg) • 5) Compound 25 (10 mg/kg) • 6) Compound 25 (15 mg/kg) • The compounds were dissolved in a 10% hydroxy propyl beta cyclodextrin solution, and administered to animals in a volume of 10 ml/kg/dose.
To monitor the effect of the tested compounds, animals were bled from the tail vein at the end of the dark cycle on days 0 (for sorting) and day 5 of the treatment period. Fed serum cholesterol levels were measured in duplicate. The blood is kept at room temperature to allow coagulation, after which the serum is separated and assayed for total cholesterol (Infinity reagent, Sigma), HDL cholesterol (using HDL precipitating reagent and infinity reagent, Sigma) and LDL cholesterol (EZLDL kit, Sigma). As shown in FIGS. 5a–c, all compounds tested show significant reduction in total and LDL cholesterol levels and a significant increase in HDL cholesterol levels compared to high fat fed control animals.

[2] = system: carcinogen induced mammary tumors; assay: Progression of carcinogen induced mammary tumors in Sprague Dawley rats; format: in vivo, rat; conditions: oral once daily for four weeks; for growth / progression of mammary (breast cancer) tumors: vs vehicle treated controls; for growth / progression of mammary (breast cancer) tumors / regression of tumors / number of static tumors: FIG. 6; for number of static tumors: compared to control animals
Procedure: Procedure: Five week-old female Sprague Dawley rats (Harlan) were housed in a fixed 12–12-hr artificial light-dark cycle, and maintained on a standard rodent diet provided ad libitum. Animals were allowed two days to acclimate in this experimental environment prior to the initiation of the study.
To induce mammary tumors, the female […] were injected intraperitoneally with the carcinogen n-nitroso-n-methylurea, in a single dose of 50 mg/kg in acidified normal saline (pH 4 w/acetic acid) at a final volume of 10 mg/ml (5 ml/kg). After eight weeks, mammary tumors are detected, and the tumor bearing females are sorted into treatment groups. Once sorted, the animals were housed four per cage and provided rodent diet ad libitum. All animals are treated with compound 1 or a vehicle for four weeks, during which time changes in tumor size are monitored. Tumors were classified as regressing, static or progressing.
Treatment groups (n=8/group): • 1) Control (sesame oil) • 2) Compound 6 (20 mg/kg) • 3) Compound 11 (100 mg/kg) • 4) Compound 13 (50 mg/kg) • 5) Compound 24 (50 mg/kg) • 6) Compound 25 (20 mg/kg) • 7) Compound 25 (100 mg/kg)
All of the compounds tested were suspended in sesame oil, and administered to animals in a volume of 3 ml/kg/dose, except compound 25 which was dissolved in a 10% hydroxy propyl beta cyclodextrin solution, and administered to animals in a volume of 10 ml/kg/dose. All treatments were administered by oral gavage once daily for four weeks.
To monitor the effect of the tested compound, animals were examined for mammary tumors once every week. Tumors were classified into one of three categories, progressing, static or regressing.

db/db mutant mice = assay: Oral treatment of type 2 diabetes in db/db mutant mice (serum glucose, triglyceride); format: in vivo, mouse
Procedure: Experimental Procedure: Seven week-old female db/db mutant mice (C57BL/KsJ-db +/+m; Jackson Labs, Bar Harbour, Me.) were housed in a fixed 12—12-hr artificial light-dark cycle, and maintained on a standard high fat diet (containing at least 11% crude fat) provided ad libitum (Teklad S-2335). Animals were allowed two days to acclimate in this experimental environment prior to the initiation of the study. Prior to initiation of treatment, the animals were bled from the tail vein (100–200 μL of whole blood) and serum levels of glucose and triglycerides were measured in duplicate (Trinder kits; Sigma, St. Louis, Mo.). Based on these initial measures, animals were sorted into treatment groups with approximately the same average serum glucose levels. Once sorted, the animals were housed five per cage and provided high fat rodent diet ad libitum.
Treatment Groups (n=5/group): • 1) db/db control (CMC) • 2) Compound 25 (0.1 mg/kg, in CMC) • 3) Compound 25 (0.3 mg/kg, in CMC) • 4) Compound 25 (1 mg/kg, in CMC)
Compound 25 was suspended in a solution of carboxymethyl cellulose (CMC; 1% carboxy methyl cellulose in H2O, with 10% polyethelene glycol 400), and administered to animals in a volume of 5 ml/kg/dose. The drug is administered by oral gavage once daily at the beginning of the artificial light cycle.
To monitor the effect of the tested compounds, animals were bled following a three-hour fast at the end of the dark cycle on days 0, 7, 14 of the treatment period. Fasting serum glucose and triglyceride levels were measured in duplicate. The blood is kept at room temperature to allow coagulation, after which the serum is separated and. assayed for glucose and triglyceride levels.

[3] = Oral bioavailability, single dose pharmacokinetic study in rats (plasma concentration by HPLC); format: in vivo, Sprague Dawley rats; conditions: rat
Description: Oral bioavailability is an important pharmaceutical characteristic for a compound to advance through drug development. A basic assessment of the oral bioavailability of a compound can be done in a single dose pharmacokinetic study in wild type rats.
Six to eight week-old male Sprague Dawley rats (Harlan) were housed in a fixed 12–12- hr artificial light-dark cycle, and maintained on a standard rodent diet provided ad libitum. Animals were allowed two days to acclimate in this experimental environment prior to the initiation of the study. Compounds 24 and 25 were dissolved in a 10% hydroxypropyl beta cyclodextrin solution and administered by oral gavage in a final dose of 10 mg/kg in a volume of 5 ml/kg. Treatment groups were divided as follows:
Treatment groups(n=3/group): • 1) Compound 24 (10 mg/kg) • 2) Compound 25 (10 mg/kg)
Each animal received a single treatment, after which, the animal was bled from the tail vein at the following time points: 0.5, 1, 2, 4, 6, 9, 12, and 26 hours after treatment. To measure the concentration of each compound in plasma, blood samples were collected in heparin-coated tubes, and the plasma was isolated and analyzed by HPLC.

[4] = KKA^y mice, oral once daily, vs control mice, FIGS. 2a–d
[5] = KKA^y mice, 1, 3, 10 mg/kg oral in 10% HPβCD, following 4 weeks of treatment, FIG. 2e
[6] = oral once daily in CMC, compared to control animals, FIG. 3

| SMILES | serum glucose level (KKA^y mice; [4]) | serum triglyceride level (KKA^y mice; [4]) | growth / progression of mammary (breast cancer) tumors [2] | regression of tumors [2] | number of static tumors [2] | further results |
| --- | --- | --- | --- | --- | --- | --- |
| Cc1cc2c(cc1-c1cc(/C=C3\SC(=O)NC3=O)ccc1OC(F)(F)F)N(C)C(=O)CC2(C)C [Compound 1, 5-[3-(1,4,4,6-Tetramethyl-2-oxo-1,2,3,4-tetrahydro-quinolin-7-yl)-4-trifluoromethoxy-benzylidene]-thiazolidine-2,4-dione] | decrease | decrease |  |  |  |  |
| CCN1C(=O)CC(C)(C)c2cc(C)c(-c3cc(/C=C4\SC(=O)NC4=O)ccc3Cl)cc21 [Compound 6, 5-[3-(1-Ethyl-4,4,6-trimethyl-2-oxo-1,2,3,4-tetrahydro-quinolin-7-yl)-4-chloro-benzylidene]-thiazolidine-2,4-dione] |  |  | slow or cause regression |  |  | HDL cholesterol [1]: increasing; LDL cholesterol [1]: decrease; total cholesterol [1]: decrease |
| Cc1cc2c(cc1-c1cc(/C=C3\SC(=O)NC3=O)ccc1OC(F)(F)F)N(C(C)C)C(=O)CC2(C)C [Compound 11, 5-[3-(1-Isopropyl-4,4,6-trimethyl-2-oxo-1,2,3,4-tetrahydro-quinolin-7-yl)-4-trifluoromethoxy-benzylidene]-thiazolidine-2,4-dione] | decrease | decrease | slow or cause regression | without causing any regressions | only increase the number of static tumors |  |
| CCN1C(=O)CC(C)(C)c2cc(C)c(-c3c(F)c(/C=C4\SC(=O)NC4=O)cc(F)c3OC)cc21 [Compound 13, 5-[3-(1-Ethyl-4,4,6-trimethyl-2-oxo-1,2,3,4-tetrahydro-quinolin-7-yl)-2,5-difluoro-4-methoxy-benzylidene]-thiazolidine-2,4-dione] | decrease | decrease | slow or cause regression | without causing any regressions | only increase the number of static tumors |  |
| CCN1C(=O)CC(C)(C)c2cc(C)c(-c3cc(/C=C4\SC(=O)NC4=O)ccc3OC(F)(F)F)cc21 [Compound 25, 5-[3-(1-Ethyl-4,4,6-trimethyl-2-oxo-1,2,3,4-tetrahydro-quinolin-7-yl)-4-trifluoromethoxy-benzylidene]-thiazolidine-2,4-dione, TRIS Salt] |  |  | slow or cause regression | caused the regression of tumors |  | serum glucose level (KKA^y mice; [5]): unexpectedly strong and simultaneous reduction; serum total cholesterol level (KKA^y mice; [5]): unexpectedly strong and simultaneous reduction; serum triglyceride level (KKA^y mice; [5]): unexpectedly strong and simultaneous reduction; dose causing regression of tumors (as low as) [2]: ≥ 20 mg/kg; dose ameliorating the symptoms of diabetes (as low as) (db/db mutant mice; once daily oral): ≥ 0.3 mg/kg; fasting serum glucose (db/db mutant mice; [6]): reduced; fasting serum triglyceride (db/db mutant mice; [6]): reduced; concentration of compound in plasma ([3]; single oral dose 10 mg/kg in 10% HPβCD, 0.5–26 hours, FIG. 7): significantly higher concentration; oral bioavailability ([3]; single oral dose 10 mg/kg, Compound 25 over Compound 24): improved bioavailability |
